According to the NIST ThermoML archive (doi:10.1021/acs.jced.5b00943):

Conditions: Liquid, Ebulliometric method (Recirculating still)

C=CC(C)C#N (centres undefined) [2-methyl-3-butenenitrile]
Conditions	vapor or sublimation pressure [kPa]
297.57 K	2.701
304.35 K	3.664
309.86 K	4.608
315.95 K	6.064
318.68 K	6.731
321.34 K	7.521
324.85 K	8.987
327.15 K	9.9
331.76 K	11.75
335.25 K	13.48
339.53 K	15.75
343.65 K	18.68
352.65 K	25.35
356.05 K	29.21
359.56 K	33.21
364.85 K	38.55
369.25 K	44.68
373.25 K	50.01
376.09 K	55.48
379.75 K	62.68
382.83 K	68.94
387.65 K	79.23
391.95 K	90.16
394.25 K	95.76
